Assay results taken from US20250248979A1, “NOVEL GPX4 INHIBITORS AND USES THEREOF” (THE TRUSTEES OF COLUMBIA UNIVERSITY IN THE CITY OF NEW YORK, priority 2022, published 2025).
≈ marks a conversion by molar mass, not a printed value. Where two headings read alike, the source gives them in different places.

How the values were obtained:
[1] = system: Salmonella typhimurium TA98, TA100, TA1535, TA1537; settings: 2.5 μM
[2] = in vitro; format: in vitro ADME, mouse; settings: mouse, microsomes
Description: (§1) […]. The incubation timepoints measured were 0, 5, 10, 15, 30, and 45 minutes. All samples were prepared in duplicate and analyzed by LC-MS/MS.

[3] = in vitro; format: in vitro ADME, human; settings: human, microsomes
Description: as §1

[4] = not given; remark: listed apart in the source
[5] = system: HT-1080 cells; experiment: Cellular dose response assay, HT-1080 with and without Fer-1; format: cell-based, human; settings: for ferroptosis induction / potency in HT-1080 cells, result in words: RSL3 as control
How it was run: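 Viability is measured with CellTiter-Glo after cells plated at 1500 per well the previous day receive a 12-point, 2-fold dilution series for 48 h. DMSO is kept at 0.4% in every well, and HT-1080 is tested both with and without Fer-1.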

[6] = molecular target: T1, GPX4 (Homo sapiens, UniProt P36969); experiment: GPX4 activity assay in cell lysates (NADPH-coupled); format: biochemical; design: endogenous in cells; host or cells: A-673 cell lysate
T1 sequence (P36969 1-170 isoform P36969-2): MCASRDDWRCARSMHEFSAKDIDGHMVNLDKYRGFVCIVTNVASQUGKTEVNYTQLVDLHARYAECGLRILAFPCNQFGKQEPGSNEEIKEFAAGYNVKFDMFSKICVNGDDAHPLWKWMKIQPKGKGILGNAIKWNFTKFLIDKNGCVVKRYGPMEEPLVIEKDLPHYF
How it was run: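 Native GPX4 in lysates of A-673 cells grown with 20 nM sodium selenite; lysate preincubated with compound 45 min at 37 °C in pH 8.0 buffer with 3 mM GSH, 0.5 mM NADPH and glutathione reductase. Reaction started with phosphatidylcholine hydroperoxide; NADPH consumption followed at 340 nm over 25 min; triplicates.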

[7] = Kinetic aqueous solubility
[8] = system: DTP cells derived from PC9; experiment: Drug-tolerant persister cell model, DTP cells; settings: for % Viability Persister: 48 hours
[9] = HT1080 + Fer-1, read-out: IC50 (uM) HT1080 + Fer-1
[10] = HT1080, without Fer-1, read-out: IC50 (uM) HT1080
[11] = ferroptosis selectivity, HT1080 + Fer-1 vs HT1080

With `CN(N=O)C(=O)N[C@H]1C(O)O[C@H](CO)[C@@H](O)[C@@H]1O` (mixture of isomers) [Streptozotocin] the “Positive Significance (− to +++) TA98 − S9” value ([1]; TA98, − S9) was “+ (Weak positive, if p < 0.05)”, the “Positive Significance (− to +++) TA100 + S9” value ([1]; TA100, + S9) was “+++ (Very strong positive, if p < 0.001)” and the “Positive Significance (− to +++) TA100 − S9” value ([1]; TA100, − S9) was “+++ (Very strong positive, if p < 0.001)”. For the same compound, the “Positive Significance (− to +++) TA1535 + S9” value ([1]; TA1535, + S9) was “+++ (Very strong positive, if p < 0.001)” and the “Positive Significance (− to +++) TA1535 − S9” value ([1]; TA1535, − S9) was “+++ (Very strong positive, if p < 0.001)”.

With `CC(OC(=O)CCl)C(C)(C)NC(=O)c1nn(C)c2cc(-c3ccc(N4CCOCC4)c(Cl)c3)ccc12` (racemic) [QW-737] the “Microsome Stability t1/2 (min) mouse” value [2] was 7.4 min, the “Plasma Stability t1/2 (min) mouse” value was 6.6 min and the “Microsome Stability t1/2 (min) human” value [3] was 8.6 min. The “Plasma Stability t1/2 (min) human” value [4] was 275 min, the IC50 [5, 9] was 1.7 µM and the IC50 [5, 10] was 1 µM. For the same compound, the Selectivity [5, 11] was 1.7 and the “GPX4% inhibition at 2.5 μM” value [6] was 86.4 ± 7.3%.

In the case of `COc1c(Cl)cc(-c2ccc3c(C(=O)NC(C)(C)C(C)OC(=O)CCl)nn(C)c3c2)cc1Cl` (racemic) [QW-745], the “Microsome Stability t1/2 (min) mouse” value [2] is reported as 13.0 min, the “Plasma Stability t1/2 (min) mouse” value is reported as 25.4 min and the “Microsome Stability t1/2 (min) human” value [3] is reported as 19.5 min. The “Plasma Stability t1/2 (min) human” value [4] was 245 min, the IC50 [5, 9] was 1.8 µM and the IC50 [5, 10] was 1.6 µM. For the same compound, the Selectivity [5, 11] was 1.1 and the “GPX4% inhibition at 2.5 μM” value [6] was 55.4 ± 8.1%.

In the case of `Cn1nc(C(=O)NC(C)(C)COC(=O)CCl)c2ccc(-c3csc4ccccc34)cc21` [QW-505], the “Microsome Stability t1/2 (min) mouse” value [2] is reported as 1.8 min, the “Plasma Stability t1/2 (min) mouse” value is reported as 6.3 min and the “Solubility” value ([7]; 1% DMSO, Phosphate Buffered Saline pH 7.4, 1 hour, ambient, UV/Vis absorbance) is reported as under 1.3 µM. For the same compound, the “Solubility” value ([7]; aqueous solubility, Table 9) was under 1.3 µM, the “Microsome Stability t1/2 (min) human” value [3] was 1.7 min and the “Plasma Stability t1/2 (min) human” value [4] was 10.2 min. The “GPX4% inhibition at 5 μM” value [6] was 76.1 ± 4.0%.

With `CC(C)Oc1ccc(-c2ccc3c(C(=O)NC(C)(C)COC(=O)CCl)nn(C)c3c2)cc1Cl` [QW-550] the “Microsome Stability t1/2 (min) mouse” value [2] was 25 min, the “Plasma Stability t1/2 (min) mouse” value was 12.5 min and the “Solubility” value ([7]; aqueous solubility, Table 9) was 7.8 µM (≈ 3.84 µg/mL). For the same compound, the “Microsome Stability t1/2 (min) human” value [3] was 49 min, the “Plasma Stability t1/2 (min) human” value [4] was 73.2 min and the “GPX4% inhibition at 5 μM” value [6] was 91.5 ± 2.2%.

With `Cn1nc(C(=O)NC(C)(C)COC(=O)CCl)c2ccc(-c3ccc(Oc4ccccc4)c(Cl)c3)cc21` [QW-561] the “Microsome Stability t1/2 (min) mouse” value [2] was 24 min, the “Plasma Stability t1/2 (min) mouse” value was 23.9 min and the “Solubility” value ([7]; aqueous solubility, Table 9) was 15.6 µM (≈ 8.21 µg/mL). The “Microsome Stability t1/2 (min) human” value [3] was 12 min, the “Plasma Stability t1/2 (min) human” value [4] was 116 min and the “GPX4% inhibition at 5 μM” value [6] was 87.6 ± 2.8%.

With `Cn1nc(C(=O)NC(C)(C)COC(=O)CCl)c2ccc(-c3ccc(Cl)c(Cl)c3)cc21` [QW-570] the “Microsome Stability t1/2 (min) mouse” value [2] was 15 min, the “Plasma Stability t1/2 (min) mouse” value was 16.9 min and the “Solubility” value ([7]; aqueous solubility, Table 9) was 15.6 µM (≈ 7.31 µg/mL). For the same compound, the “Microsome Stability t1/2 (min) human” value [3] was 22 min, the “Plasma Stability t1/2 (min) human” value [4] was 56.7 min and the “GPX4% inhibition at 5 μM” value [6] was 80.7 ± 14.8%.

For `Cn1nc(C(=O)NC(C)(C)COC(=O)CCl)c2ccc(-c3ccc4c(c3)OCO4)cc21` [QW-594], the “Microsome Stability t1/2 (min) mouse” value [2] was 137 min, the unbound clearance rate [2] was 0.085 µL/min/mg and the “Plasma Stability t1/2 (min) mouse” value was 17.0 min. For the same compound, the “half-life in mouse plasma” value was 17 min, the “Solubility” value ([7]; aqueous solubility, Table 9) was 1.0 µM (≈ 0.444 µg/mL) and the “Microsome Stability t1/2 (min) human” value [3] was 250 min. The “Plasma Stability t1/2 (min) human” value [4] was 6.6 min, the Selectivity [5] was 3.3 and the IC50 [5, 9] was 8.8 µM. For the same compound, the IC50 [5, 10] was 2.7 µM, the “GPX4 inhibitory activity, result in words” value [6] was “comparable to that of QW-446” and the “GPX4% inhibition at 2.5 μM” value [6] was 71.5 ± 3.0%. For the same compound, the GPX4 inhibition rate ([6]; concentration not given) was 75%.

In the case of `COc1ccc(-c2ccc3c(C(=O)NC(C)(C)CNC(=O)CCl)nn(C)c3c2)cc1Cl` [QW-628], the “Microsome Stability t1/2 (min) mouse” value [2] is reported as 19 min, the “Plasma Stability t1/2 (min) mouse” value is reported as 311 min and the “Microsome Stability t1/2 (min) human” value [3] is reported as 15 min. For the same compound, the “Plasma Stability t1/2 (min) human” value [4] was 243 min and the “GPX4% inhibition at 2.5 μM” value [6] was 33.6 ± 6.5%.

For `COc1ccc(CNS(=O)(=O)c2ccc(-c3ccc4c(C(=O)NC(C)(C)COC(=O)CCl)nn(C)c4c3)cc2)cc1` [QW-658], the “Plasma Stability t1/2 (min) mouse” value was 6.2 min, the “Plasma Stability t1/2 (min) human” value [4] was 12.5 min and the IC50 [5, 9] was 14.6 µM. The IC50 [5, 10] was 3.5 µM, the Selectivity [5, 11] was 4.2 and the “GPX4% inhibition at 2.5 μM” value [6] was 26.3 ± 63.2%. For the same compound, the “GPX4% inhibition at 5 μM” value [6] was 20.9 ± 14.0%.

In the case of `Cn1nc(C(=O)NC(C)(C)COC(=O)CCl)c2ccc(-c3ccc(OC(F)(F)F)c(Cl)c3)cc21` [QW-672], the “Microsome Stability t1/2 (min) mouse” value [2] is reported as 19 min, the “Plasma Stability t1/2 (min) mouse” value is reported as 4.7 min and the “Microsome Stability t1/2 (min) human” value [3] is reported as 17 min. For the same compound, the “Plasma Stability t1/2 (min) human” value [4] was 47.9 min, the IC50 [5, 9] was 18.2 µM and the IC50 [5, 10] was 2.4 µM. For the same compound, the Selectivity [5, 11] was 7.6 and the “GPX4% inhibition at 2.5 μM” value [6] was 68.0 ± 45.2%.

In the case of `Cn1nc(-n2cc(C(C)(C)COC(=O)CCl)nn2)c2ccc(-c3ccc(N4CCOCC4)c(Cl)c3)cc21` [QW-680], the “Microsome Stability t1/2 (min) mouse” value [2] is reported as 26 min, the “Plasma Stability t1/2 (min) mouse” value is reported as 3.2 min and the “Microsome Stability t1/2 (min) human” value [3] is reported as 28 min. The “Plasma Stability t1/2 (min) human” value [4] was 67.4 min, the IC50 [5, 9] was 12.1 µM and the IC50 [5, 10] was 3 µM. For the same compound, the Selectivity [5, 11] was 4.0 and the “GPX4% inhibition at 2.5 μM” value [6] was 57.3 ± 2.8%.

For `COc1ccc(-c2ccc3c(C(=O)NC(COC(=O)CCl)C(F)(F)F)nn(C)c3c2)cc1Cl` (stereo not shown) [QW-686], the “Plasma Stability t1/2 (min) mouse” value was 23.8 min, the “Plasma Stability t1/2 (min) human” value [4] was 16.6 min and the “GPX4% inhibition at 2.5 μM” value [6] was 35.8 ± 14.3%.

For `COc1ccc(-c2ccc3c(C(=O)NC(C)(C)C(C)(C)OC(=O)CCl)nn(C)c3c2)cc1Cl` [QW-730], the “Microsome Stability t1/2 (min) mouse” value [2] was 10.7 min, the “Plasma Stability t1/2 (min) mouse” value was 385 min and the “Microsome Stability t1/2 (min) human” value [3] was 6.6 min. The “Plasma Stability t1/2 (min) human” value [4] was 318 min, the IC50 [5, 9] was 5.7 µM and the IC50 [5, 10] was 0.59 µM. For the same compound, the “ferroptosis induction / potency in HT-1080 cells, result in words” value [5] was “sub-micromolar GI50 value”, the Selectivity [5, 11] was 9.7 and the “GPX4% inhibition at 2.5 μM” value [6] was 98.4 ± 17.6%.

In the case of `COc1c(Cl)cc(-c2ccc3c(C(=O)NC(C)(C)C(C)(C)OC(=O)CCl)nn(C)c3c2)cc1Cl` [QW-750], the “Microsome Stability t1/2 (min) mouse” value [2] is reported as 13.5 min, the “Plasma Stability t1/2 (min) mouse” value is reported as over 1000 min and the “Microsome Stability t1/2 (min) human” value [3] is reported as 10.2 min. For the same compound, the “Plasma Stability t1/2 (min) human” value [4] was 290 min, the IC50 [5, 9] was 5.4 µM and the IC50 [5, 10] was 1.6 µM. The “ferroptosis induction / potency in HT-1080 cells, result in words” value [5] was “moderate potency”, the Selectivity [5, 11] was 3.4 and the “GPX4% inhibition at 2.5 μM” value [6] was 20.4 ± 3.6%.

For `CC(C)(NC(=O)c1nn(Cc2ccc(Cl)cc2)c2cc(-c3ccc(N4CCOCC4)c(Cl)c3)ccc12)C(C)(C)OC(=O)CCl` [QW-811], the Selectivity ([5]; ferroptosis selectivity, IC50 with Fer-1 / IC50) was 45.4, the IC50 ([5]; with Fer-1, Table 10, read-out: IC50 (μM) HT1080 + Fer-1) was 12.7 µM and the IC50 ([5]; without Fer-1, Table 10, read-out: IC50 (μM) HT1080) was 0.28 µM. The “GPX4% inhibition at 2.5 μM” value ([6]; 4th generation) was 47.4 ± 8.9%, the “selectivity for DTPs vs PC9 parental cells, result in words” value [8] was “selective and similar or stronger cytotoxicity to DTP cells” and the “% Viability Persister” value ([8]; dose 1.0 μM) was 93.00%. The “% Viability Persister” value ([8]; dose 10.0 μM) was 4.75%.
